Where a name gives a salt, the structure may show the parent alone. Read-outs that look alike come from different tables or passages of the source. Starred links: 1 amine or outer side, 2 acyl side, 3 side chain; linkers in the order of their positions; H or OH if unused. Positions of bridges follow the written chain, without caps; N, C: chain ends. Non-standard residues stand in square brackets, D forms with d. Residues, ends and D or L forms follow the SMILES beside them. *: point of attachment. Trp(5-OH) = N[C@@H](Cc1c[nH]c2ccc(O)cc12)C(=O)O; X9 = CN([C@@H](CCc1cccc(Cl)c1)C(=O)[*:2])[*:1]; NMePhe(4-F) = CN[C@@H](Cc1ccc(F)cc1)C(=O)O; β2hAla(2S) = C[C@@H](CN[*:1])C(=O)[*:2]; NMehPhe = CN[C@@H](CCc1ccccc1)C(=O)O; NMeE = CN[C@@H](CCC(=O)O)C(=O)O; Aad = N[C@@H](CCCC(=O)O)C(=O)O; Gly(cPr) = N[C@H](C(=O)O)C1CC1; aThr = C[C@H](O)[C@H](N)C(=O)O; NMeK = CN[C@@H](CCCCN)C(=O)O; NMeDap = CN[C@@H](CN)C(=O)O; Tfa = O=C(C(F)(F)F)*
How the values were obtained:
Assay type in all cases: binding
mouse HER2 (23-653) = mouse HER2 (23-653) (Mus musculus, UniProt P70424); test: TR-FRET competition assay for peptide potency, mouse HER2; design: mouse HER2 (23-653) using a Cy5 labeled peptide as a probe; made in house; host or cells: mammalian cells; conditions: TR-FRET competition with Cy5 labeled peptide probe, 0.1 nM mouse HER2, 24 h incubation; read-out: moHER2 TR-FRET IC50
Experimental: (§1) Both proteins containing a His-, Avi-tag and biotin in Nterminus, were expressed in mammalian cells and produced in house. […] Standard assay conditions consist of 20 uL total volume in white 384-well plates (Greiner), in 10 mM HEPES buffer containing 150 mM NaCl, 3 mM EDTA, 0.05% Tween20 and 1% final DMSO. […] The ratiometric FRET assay readout is calculated from the ratio of the raw data of the two distinct fluorescence signals measured in time resolved mode (fluorescence 665 nm/fluorescence 620 nm). IC50 values were calculated with the standard Novartis in-house assay data analysis software (Helios software application, Novartis Institutes for BioMedical Research, unpublished) using the methods described in Comput. Methods. Programs. Biomed. 2006, 82, 31-37 (regression algorithms for nonlinear dose-response curve fitting).

human HER2 (23-652) [1] = biological target: T1, human HER2 (23-652) (Homo sapiens, UniProt P04626); test: Surface plasmon resonance (SPR) for assessment of peptide affinity, human HER2; design: towards human HER2 (23-652) and mouse HER2 (23-653); made in house
Experimental: Each protein was immobilized either onto a SA sensorchip (Cytiva, BR-1005-31) or CM5 sensorchip (Cytiva, BR-1005-30) to a density of 800-2000 RU. […] For the assay setup the same conditions (flow rate, running buffer, peptide dilution) as described above were used. In a first step the Anti Fc IgG Ab (from Human Antibody Capture Kit, Ref. 29234600, Cytiva) was diluted into acetate pH 5.0 at 25 ug/mL and immobilized at a flow rate of 10 uL/min over 360 s to reach a density around 6000 RU. […] The peptides were tested with an association time of 280 s followed by a dissociation time of 3000 s at a flow rate of 30 uL/min. The regeneration was done using 3 M magnesium chloride regeneration solution as obtained with a contact time of 30 s at a flow rate of 10 uL/min. Curve fitting was performed using the BiacoreTM 8K evaluation software.

human HER2 (23-652) [2] = biological target: T1, human HER2 (23-652); test: TR-FRET competition assay for peptide potency, human HER2; design: towards human HER2 (23-652) and mouse HER2 (23-653); made in house; host or cells: mammalian cells; conditions: read-out: huHER2 TR-FRET IC50
Experimental: as §1

[3] = SPR, human HER2 extracellular domain, 25° C., 1:1 binding model, read-out: huHER2-SPR-ONC KD

Row | SMILES | IC50 (mouse HER2 (23-653)) [nM] | Kd (human HER2 (23-652) [1]; [3]) [nM] | other results
1 | CC(=O)N[C@H]1CCCC(=O)NC[C@@H](C(=O)N(C)[C@@H](Cc2ccc(F)cc2)C(N)=O)N(C)C(=O)[C@H](C2CC2)NC(=O)[C@H](Cc2c[nH]c3ccccc23)NC(=O)[C@H](Cc2c[nH]c3ccc(O)cc23)NC(=O)[C@H](CCCCNC(=O)C(F)(F)F)N(C)C(=O)[C@H](CCc2ccccc2)N(C)C(=O)[C@H](CO)NC(=O)[C@H](Cc2ccc(O)cc2)NC1=O [Example A4, (3S,6S,9S,12S,15S,18S,21S,24S,27S)-9-((1H-indol-3-yl)methyl)-27-acetamido-N-((S)-1-amino-3-(4-fluorophenyl)-1-oxopropan-2-yl)-6-cyclopropyl-12-((5-hydroxy-1H-indol-3-yl)methyl)-24-(4-hydroxybenzyl)-21-(hydroxymethyl)-N,4,16,19-tetramethyl-5,8,11,14,17,20,23,26,31-nonaoxo-18-phenethyl-15-(4-(2,2,2-trifluoroacetamido)butyl)-1,4,7,10,13,16,19,22,25-nonaazacyclohentriacontane-3-carboxamide] (Ac-[Aad]YS[NMehPhe][NMeK](Tfa)[Trp(5-OH)]W[Gly(cPr)][NMeDap][NMePhe(4-F)]-NH2; lactam 1-9) | 29 | 8.9 | 
2 | CC(=O)NCCCC[C@H]1C(=O)N[C@@H](Cc2c[nH]c3ccc(O)cc23)C(=O)N[C@@H](Cc2c[nH]c3ccccc23)C(=O)N[C@@H]([C@H](C)O)C(=O)N(C)[C@H](C(=O)N(C)[C@@H](Cc2ccc(F)cc2)C(N)=O)CNC(=O)CCC[C@H](NC(C)=O)C(=O)N[C@@H](Cc2ccc(O)cc2)C(=O)N[C@@H](CO)C(=O)N(C)[C@@H](CCc2ccccc2)C(=O)N1C [Example A6, (3S,6S,9S,12S,15S,18S,21S,24S,27S)-9-((1H-indol-3-yl)methyl)-27-acetamido-15-(4-acetamidobutyl)-N-((S)-1-amino-3-(4-fluorophenyl)-1-oxopropan-2-yl)-12-((5-hydroxy-1H-indol-3-yl)methyl)-24-(4-hydroxybenzyl)-6-((S)-1-hydroxyethyl)-21-(hydroxymethyl)-N,4,16,19-tetramethyl-5,8,11,14,17,20,23,26,31-nonaoxo-18-phenethyl-1,4,7,10,13,16,19,22,25-nonaazacyclohentriacontane-3-carboxamide] (Ac-[Aad]YS[NMehPhe][NMeK](Ac)[Trp(5-OH)]W[aThr][NMeDap][NMePhe(4-F)]-NH2; lactam 1-9) |  |  | IC50 (human HER2 (23-652) [2]): 1.3 nM
3 | CC(=O)NCCCC[C@H]1C(=O)N[C@@H](Cc2c[nH]c3ccc(O)cc23)C(=O)N[C@@H](Cc2c[nH]c3ccccc23)C(=O)N[C@@H](C2CC2)C(=O)N(C)[C@H](C(=O)N(C)[C@@H](Cc2ccc(F)cc2)C(N)=O)CNC(=O)CCC[C@H](NC(C)=O)C(=O)N[C@@H](Cc2ccc(O)cc2)C(=O)N[C@@H](CO)C(=O)N(C)[C@@H](CCc2cccc(Cl)c2)C(=O)N1C [Example A8, (3S,6S,9S,12S,15S,18S,21S,24S,27S)-9-((1H-indol-3-yl)methyl)-27-acetamido-15-(4-acetamidobutyl)-N-((S)-1-amino-3-(4-fluorophenyl)-1-oxopropan-2-yl)-18-(3-chlorophenethyl)-6-cyclopropyl-12-((5-hydroxy-1H-indol-3-yl)methyl)-24-(4-hydroxybenzyl)-21-(hydroxymethyl)-N,4,16,19-tetramethyl-5,8,11,14,17,20,23,26,31-nonaoxo-1,4,7,10,13,16,19,22,25-nonaazacyclohentriacontane-3-carboxamide] (Ac-[Aad]YS[X9][NMeK](Ac)[Trp(5-OH)]W[Gly(cPr)][NMeDap][NMePhe(4-F)]-NH2; lactam 1-9) | 2.3 | 1 | 
4 | CC(=O)NCCCC[C@H]1C(=O)N[C@@H](Cc2c[nH]c3ccc(O)cc23)C(=O)N[C@@H](Cc2c[nH]c3ccccc23)C(=O)N[C@@H](C2CC2)C(=O)N(C)[C@H](C(=O)N(C)[C@@H](Cc2ccc(F)cc2)C(N)=O)CCC(=O)NC[C@H](C)C(=O)N[C@@H](Cc2ccc(O)cc2)C(=O)N[C@@H](CO)C(=O)N(C)[C@@H](CCc2ccccc2)C(=O)N1C [Example A22, (3S,6S,9S,12S,15S,18S,21S,24S,30S)-6-((1H-indol-3-yl)methyl)-12-(4-acetamidobutyl)-N-((S)-1-amino-3-(4-fluorophenyl)-1-oxopropan-2-yl)-3-cyclopropyl-9-((5-hydroxy-1H-indol-3-yl)methyl)-21-(4-hydroxybenzyl)-18-(hydroxymethyl)-N,1,13,16,24-pentamethyl-2,5,8,11,14,17,20,23,27-nonaoxo-15-phenethyl-1,4,7,10,13,16,19,22,26-nonaazacyclotriacontane-30-carboxamide] ([β2hAla(2S)]YS[NMehPhe][NMeK](Ac)[Trp(5-OH)]W[Gly(cPr)][NMeE][NMePhe(4-F)]-NH2; lactam N-9) | 9.9 | 9.7 | 
5 | CC(=O)N[C@H]1CCCC(=O)NC[C@@H](C(=O)N(C)[C@@H](Cc2ccc(F)cc2)C(=O)N[C@@H](CCCCNC(=O)CN2CCN(CC(=O)O)CCN(CC(=O)O)CCN(CC(=O)O)CC2)C(N)=O)N(C)C(=O)[C@H]([C@H](C)O)NC(=O)[C@H](Cc2c[nH]c3ccccc23)NC(=O)[C@H](Cc2c[nH]c3ccc(O)cc23)NC(=O)[C@H](CCCCNC(=O)CCO)N(C)C(=O)[C@H](CCc2ccccc2)N(C)C(=O)[C@H](CO)NC(=O)[C@H](Cc2ccc(O)cc2)NC1=O [Example C22] |  | 0.5 | 
6 | CC(=O)NCCCC[C@H]1C(=O)N[C@@H](Cc2c[nH]c3ccc(O)cc23)C(=O)N[C@@H](Cc2c[nH]c3ccccc23)C(=O)N[C@@H](C2CC2)C(=O)N(C)[C@H](C(=O)N(C)[C@@H](Cc2ccc(F)cc2)C(=O)N[C@@H](CCCCNC(=O)CN2CCN(CC(=O)O)CCN(CC(=O)O)CCN(CC(=O)O)CC2)C(N)=O)CNC(=O)CCC[C@H](NC(C)=O)C(=O)N[C@@H](Cc2ccc(O)cc2)C(=O)N[C@@H](CO)C(=O)N(C)[C@@H](CCc2ccccc2)C(=O)N1C [Example C29] | 0.2 |  | 
7 | CC[N+]1=C(/C=C/C=C/C=C2/N(CCCCCC(=O)NCCCC[C@H](NC(=O)[C@H](Cc3ccc(F)cc3)N(C)C(=O)[C@@H]3CNC(=O)CC[C@H](NC(C)=O)C(=O)N[C@@H](Cc4ccc(O)cc4)C(=O)N[C@@H](CO)C(=O)N(C)[C@@H](CCc4ccccc4)C(=O)N(C)[C@@H](CCCCNC(C)=O)C(=O)N[C@@H](Cc4c[nH]c5ccc(O)cc45)C(=O)N[C@@H](Cc4c[nH]c5ccccc45)C(=O)N[C@@H]([C@H](C)O)C(=O)N3C)C(N)=O)c3ccc(S(=O)(=O)O)cc3C2(C)C)C(C)(C)c2cc(S(=O)(=O)O)ccc21 [Example D4] |  |  | Kd (human HER2 (23-652) [1]): 0.4 nM
8 | CC[N+]1=C(/C=C/C=C/C=C2/N(CCCCCC(=O)NCCOCCOCCOCCOCCOCCOCCOCCOCCOCCOCCC(=O)NCCCC[C@H](NC(=O)[C@H](Cc3ccc(F)cc3)N(C)C(=O)[C@@H]3CNC(=O)CCC[C@H](NC(C)=O)C(=O)N[C@@H](Cc4ccc(O)cc4)C(=O)N[C@@H](CO)C(=O)N(C)[C@@H](CCc4ccccc4)C(=O)N(C)[C@@H](CCCCNC(C)=O)C(=O)N[C@@H](Cc4c[nH]c5ccc(O)cc45)C(=O)N[C@@H](Cc4c[nH]c5ccccc45)C(=O)N[C@@H](C4CC4)C(=O)N3C)C(N)=O)c3ccc(S(=O)(=O)O)cc3C2(C)C)C(C)(C)c2cc(S(=O)(=O)[O-])ccc21 [Example D7] |  |  | Kd (human HER2 (23-652) [1]): < 0.1 nM

Now from value to compound, other results behind:

Row | IC50 (mouse HER2 (23-653)) [nM] | Kd (human HER2 (23-652) [1]; [3]) [nM] | SMILES | other results
9 |  | < 0.1 | CC[N+]1=C(/C=C/C=C/C=C2/N(CCCCCC(=O)NCCCC[C@H](NC(=O)[C@H](Cc3ccc(F)cc3)N(C)C(=O)[C@@H]3CNC(=O)CCC[C@H](NC(C)=O)C(=O)N[C@@H](Cc4ccc(O)cc4)C(=O)N[C@@H](CO)C(=O)N(C)[C@@H](CCc4ccccc4)C(=O)N(C)[C@@H](CCCCNC(C)=O)C(=O)N[C@@H](Cc4c[nH]c5ccc(O)cc45)C(=O)N[C@@H](Cc4c[nH]c5ccccc45)C(=O)N[C@@H](C4CC4)C(=O)N3C)C(N)=O)c3ccc(S(=O)(=O)O)cc3C2(C)C)C(C)(C)c2cc(S(=O)(=O)[O-])ccc21 [Example D1] | 
10 |  | 0.1 | CC[N+]1=C(/C=C/C=C/C=C2/N(CCCCCC(=O)NCCOCCOCCOCCOCCOCCOCCOCCOCCOCCOCCC(=O)N[C@H]3CCCC(=O)NC[C@@H](C(=O)N(C)[C@@H](Cc4ccc(F)cc4)C(=O)N[C@@H](CCCCNC(=O)CN4CCN(CC(=O)O)CCN(CC(=O)O)CCN(CC(=O)O)CC4)C(N)=O)N(C)C(=O)[C@H](C4CC4)NC(=O)[C@H](Cc4c[nH]c5ccccc45)NC(=O)[C@H](Cc4c[nH]c5ccc(O)cc45)NC(=O)[C@H](CCCCNC(C)=O)N(C)C(=O)[C@H](CCc4ccccc4)N(C)C(=O)[C@H](CO)NC(=O)[C@H](Cc4ccc(O)cc4)NC3=O)c3ccc(S(=O)(=O)O)cc3C2(C)C)C(C)(C)c2cc(S(=O)(=O)[O-])ccc21 [Example D6] | 

From patent publication US20250332300A1 (priority 2024, published 2025)
